≈ marks a conversion by molar mass, not a printed value. Read-outs that look alike come from different tables or passages of the source.
Key:
E. faecalis VSE 1 = test: MIC, broth microdilution, vancomycin-sensitive E. faecalis (VSE 1); assay type: cell-based, Enterococcus faecalis
In short: (§1)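 Serial dilutions in broth, set up per CLSI guidance, gave the MIC. Where noted, test analogues or comparator antibiotics were combined with vancomycin at 10 μM final. Controls: ultrapure water, broth without inoculum.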

E. faecalis VRE 6 = test: MIC, broth microdilution, vancomycin-resistant E. faecalis VRE 6 (VanA); assay type: cell-based, Enterococcus faecalis
In short: as §1

E. faecalis VRE 53 = test: MIC, broth microdilution, vancomycin-resistant E. faecalis VRE 53 (VanA); assay type: cell-based, Enterococcus faecalis
In short: as §1

E. faecalis VRE 29 = test: MIC, broth microdilution, vancomycin-resistant E. faecalis VRE 29 (VanA); assay type: cell-based, Enterococcus faecalis
In short: as §1

E. faecalis VRE 37 = test: MIC, broth microdilution, vancomycin-resistant E. faecalis VRE 37 (VanA); assay type: cell-based, Enterococcus faecalis
In short: as §1

[1] = system: Murine leukemia (L1210) cells; test: Cytostatic activity, L1210 cell proliferation; assay type: cell-based; conditions: Mus musculus, L1210, 48 h, read-out: Toxicity (IC50) L1210
In short: (§2)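 Readout: Coulter cell number after drug exposure at 37°C. Durations differ by line (L1210 2 days; CEM 3 days; HeLa 4 days). Stock suspension 300,000–500,000 cells/mL, diluted by mixing with compound. Endpoint: IC50 vs negative control.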

[2] = system: human T-lymphocyte (CEM) cells; test: Cytostatic activity, CEM cell proliferation; assay type: cell-based; conditions: Homo sapiens, CCRF-CEM, 72 h, read-out: Toxicity (IC50) CEM
In short: as §2

[3] = system: human cervix carcinoma (HeLa) cells; test: Cytostatic activity, HeLa cell proliferation; assay type: cell-based; conditions: Homo sapiens, HeLa, 96 h, read-out: Toxicity (IC50) HeLa
In short: as §2

[4] = system: L1210, CEM and HeLa cell lines; test: Cytostatic activity, average or summary over L1210, CEM and HeLa; assay type: cell-based
In short: as §2

[5] = system: S. aureus VSSA (ATCC 6538); test: MIC, broth microdilution, vancomycin-sensitive S. aureus (VSSA/MSSA, ATCC 6538); assay type: cell-based, Staphylococcus aureus
In short: as §1

S. aureus VISA/HIP5827 = test: MIC, broth microdilution, vancomycin-intermediate S. aureus VISA HIP5827; assay type: cell-based, Staphylococcus aureus
In short: as §1

S. aureus VRSA = test: MIC, broth microdilution, vancomycin-resistant S. aureus (VRSA); assay type: cell-based, Staphylococcus aureus
In short: as §1

MRSA KS2 = test: MIC, broth microdilution, MRSA KS2; assay type: cell-based, Staphylococcus aureus
In short: as §1

MRSA KS6 = test: MIC, broth microdilution, MRSA KS6; assay type: cell-based, Staphylococcus aureus
In short: as §1

MRSA KS89 = test: MIC, broth microdilution, MRSA KS89; assay type: cell-based, Staphylococcus aureus
In short: as §1

MRSA KS1 = test: MIC, broth microdilution, MRSA KS1; assay type: cell-based, Staphylococcus aureus
In short: as §1

33 clinical VRE isolates = test: MIC against a set of 33 clinical VRE isolates (range, MIC50, TI); assay type: cell-based, Enterococcus faecalis; conditions: VRE; for TI (IC50/MIC50): in vitro therapeutic index
In short: as §1

[6] = system: 24 clinical MRSA isolates; test: MIC against a set of 24 clinical MRSA isolates (range, MIC50, TI); assay type: cell-based, Staphylococcus aureus
In short: as §1

[7] = system: Clostridium difficile ATJ ribotype 014/20; test: MIC, plate drop assay, C. difficile ATJ ribotype 014/20; assay type: cell-based
In short: (§3)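 Twofold dilution series of test compounds were spotted onto C. difficile lawns in 0.4% BHI agar containing added calcium and magnesium salts. After overnight anaerobic incubation at 37°C, growth inhibition was scored by spot clearing; triplicate runs, ultrapure water negative control.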

[8] = system: Clostridium difficile AIU ribotype 027; test: MIC, plate drop assay, C. difficile AIU ribotype 027; assay type: cell-based
In short: as §3

VE 148 (VanB) = test: MIC, VanB-type VRE strain VE 148; assay type: cell-based, Enterococcus; conditions: Enterococcus
In short: as §1

VE 149 (VanB) = test: MIC, VanB-type VRE strain VE 149; assay type: cell-based, Enterococcus; conditions: Enterococcus
In short: as §1

VE 150 (VanB) = test: MIC, VanB-type VRE strain VE 150; assay type: cell-based, Enterococcus; conditions: Enterococcus
In short: as §1

VE 152 (VanB) = test: MIC, VanB-type VRE strain VE 152; assay type: cell-based, Enterococcus; conditions: Enterococcus
In short: as §1

VE 157 (VanB) = test: MIC, VanB-type VRE strain VE 157; assay type: cell-based, Enterococcus; conditions: Enterococcus
In short: as §1

VE 82 (VanC1) = test: MIC, VanC1-type VRE strain VE 82; assay type: cell-based, Enterococcus gallinarum; conditions: Enterococcus gallinarum
In short: as §1

MRSA = test: Minimum bactericidal concentration against MRSA; assay type: cell-based, Staphylococcus aureus
Method: Plates were incubated overnight at 37°C and colony growth was inspected.

Compound: CN[C@H](CC(C)C)C(=O)N[C@H]1C(=O)N[C@@H](CC(N)=O)C(=O)N[C@H]2C(=O)N[C@H]3C(=O)N[C@H](C(=O)N[C@H](C(=O)O)c4cc(O)cc(O)c4-c4cc3ccc4O)[C@H](O)c3ccc(c(Cl)c3)Oc3cc2cc(c3O[C@@H]2O[C@H](CO)[C@@H](O)[C@H](O)[C@H]2O[C@H]2C[C@](C)(N)[C@H](O)[C@H](C)O2)Oc2ccc(cc2Cl)[C@H]1O [Vancomycin]
- MICvanc/MICi (E. faecalis VSE 1; E. faecalis VSE 1, ratio of MIC of vancomycin and MIC of analogue): 1
- MIC (E. faecalis VSE 1; Enterococcus faecalis VSE 1 (vancomycin-sensitive), read-out: MIC): 1.56 µM (≈ 2.26 µg/mL)
- MIC (E. faecalis VSE 1; Enterococcus faecalis, VSE1): 1.56 µM (≈ 2.26 µg/mL)
- MIC-fold improvement vs. vancomycin (E. faecalis VSE 1; VSE 1, ratio of MIC of vancomycin and MIC of analogue): 1
- MICvanc/MICi (E. faecalis VRE 6; E. faecalis VRE 6, ratio of MIC of vancomycin and MIC of analogue): 1
- MIC (E. faecalis VRE 6; Enterococcus faecalis VRE 6 (vancomycin-resistant), read-out: MIC): 200 µM (≈ 290 µg/mL)
- MIC (E. faecalis VRE 6; Enterococcus faecalis, VRE): 200 µM (≈ 290 µg/mL)
- MIC-fold improvement vs. vancomycin (E. faecalis VRE 6; VRE 6, ratio of MIC of vancomycin and MIC of analogue): 1
- MICvanc/MICi (E. faecalis VRE 53; E. faecalis VRE 53, ratio of MIC of vancomycin and MIC of analogue): 1
- MIC (E. faecalis VRE 53; Enterococcus faecalis VRE 53 (vancomycin-resistant), read-out: MIC): 400 µM (≈ 580 µg/mL)
- MIC (E. faecalis VRE 53; Enterococcus faecalis, VRE): 400 µM (≈ 580 µg/mL)
- MIC-fold improvement vs. vancomycin (E. faecalis VRE 53; VRE 53, ratio of MIC of vancomycin and MIC of analogue): 1
- MIC (E. faecalis VRE 29; Enterococcus faecalis, VRE): 400 µM (≈ 580 µg/mL)
- MIC-fold improvement vs. vancomycin (E. faecalis VRE 29; VRE 29, ratio of MIC of vancomycin and MIC of analogue): 1
- MIC (E. faecalis VRE 37; Enterococcus faecalis, VRE): 400 µM (≈ 580 µg/mL)
- MIC-fold improvement vs. vancomycin (E. faecalis VRE 37; VRE 37, ratio of MIC of vancomycin and MIC of analogue): 1
- IC50 [1]: > 250 µM
- IC50 [2]: > 250 µM
- IC50 [3]: > 250 µM
- IC50 [4]: 250 µM
- IC50 ([4]; read-out: IC50 (L1210, CEM, HeLa), depending on the cell line used): > 250 µM
- IC50 ([4]; read-out: Toxicity (IC50) Average): > 250 µM
- MIC ([5]; Staphylococcus aureus, ATCC6538): 0.78 µM (≈ 1.13 µg/mL)
- MIC-fold improvement vs. vancomycin ([5]; VSSA, ratio of MIC of vancomycin and MIC of analogue): 1
- MIC (S. aureus VISA/HIP5827; Staphylococcus aureus, VISA): 6.25 µM (≈ 9.06 µg/mL)
- MIC-fold improvement vs. vancomycin (S. aureus VISA/HIP5827; VISA/HIP5827, ratio of MIC of vancomycin and MIC of analogue): 1
- MIC (S. aureus VRSA; Staphylococcus aureus VRSA): 100 µM (≈ 145 µg/mL)
- MIC-fold improvement vs. vancomycin (S. aureus VRSA; VRSA, ratio of MIC of vancomycin and MIC of analogue): 1
- MIC-fold improvement vs. vancomycin (MRSA KS2; MRSA KS2, ratio of MIC of vancomycin and MIC of analogue): 1
- MIC (MRSA KS2; Staphylococcus aureus, MRSA): 0.78 µM (≈ 1.13 µg/mL)
- MIC-fold improvement vs. vancomycin (MRSA KS6; MRSA KS6, ratio of MIC of vancomycin and MIC of analogue): 1
- MIC (MRSA KS6; Staphylococcus aureus, MRSA): 0.78 µM (≈ 1.13 µg/mL)
- MIC-fold improvement vs. vancomycin (MRSA KS89; MRSA KS8 (head; KS89 in title), ratio of MIC of vancomycin and MIC of analogue): 1
- MIC (MRSA KS89; Staphylococcus aureus, MRSA): 0.78 µM (≈ 1.13 µg/mL)
- MIC-fold improvement vs. vancomycin (MRSA KS1; MRSA KS1, ratio of MIC of vancomycin and MIC of analogue): 1
- MIC (MRSA KS1; Staphylococcus aureus, MRSA): 0.78 µM (≈ 1.13 µg/mL)
- MIC50 (33 clinical VRE isolates; Enterococcus): 800 µM (≈ 1160 µg/mL)
- TI (IC50/MIC50) (33 clinical VRE isolates): 0.3
- TI (IC50/MIC50) (33 clinical VRE isolates; listed as vancomycin): < 1
- MIC Range ([6]; 24 clinical MRSA isolates): 0.78 to 6.25 µM
- MIC50 ([6]; Staphylococcus aureus, MRSA): 1.56 µM (≈ 2.26 µg/mL)
- TI (IC50/MIC50) ([6]; in vitro therapeutic index, MRSA): 160
- MIC-fold improvement vs. vancomycin ([7]; C. difficile ATJ ribotype 014/20): 1
- MIC ([7]; Clostridioides difficile, C. difficile ATJ ribotype 014/20, plate drop assay): 35 µM (≈ 50.7 µg/mL)
- MIC-fold improvement vs. vancomycin ([8]; C. difficile AIU ribotype 027): 1
- MIC ([8]; Clostridioides difficile, C. difficile AIU ribotype 027, plate drop assay): 45 µM (≈ 65.2 µg/mL)
- MIC (VE 148 (VanB)): 100 µM (≈ 145 µg/mL)
- MIC (VE 149 (VanB)): 50 µM (≈ 72.5 µg/mL)
- MIC (VE 150 (VanB)): 100 µM (≈ 145 µg/mL)
- MIC (VE 152 (VanB)): 50 µM (≈ 72.5 µg/mL)
- MIC (VE 157 (VanB)): 100 µM (≈ 145 µg/mL)
- MIC (VE 82 (VanC1)): 3.13 µM (≈ 4.54 µg/mL)
- MBC relative to MIC (MRSA): MBC equaling their MIC values
